Consider 37 compounds from US11524966B1 (Valo Early Discovery, Inc., priority 2017, dated 2022).

This test addresses T1, USP28 (His-tagged USP28-FL-mammalian) (Homo sapiens, UniProt Q96RU2).
T1 construct: Expression of USP28 (1-1077)-TEV-6*His (pTT5 vector); made in house; host or cells: Expi293f cells (pTT5 vector)
T1 sequence (Q96RU2 1-1077): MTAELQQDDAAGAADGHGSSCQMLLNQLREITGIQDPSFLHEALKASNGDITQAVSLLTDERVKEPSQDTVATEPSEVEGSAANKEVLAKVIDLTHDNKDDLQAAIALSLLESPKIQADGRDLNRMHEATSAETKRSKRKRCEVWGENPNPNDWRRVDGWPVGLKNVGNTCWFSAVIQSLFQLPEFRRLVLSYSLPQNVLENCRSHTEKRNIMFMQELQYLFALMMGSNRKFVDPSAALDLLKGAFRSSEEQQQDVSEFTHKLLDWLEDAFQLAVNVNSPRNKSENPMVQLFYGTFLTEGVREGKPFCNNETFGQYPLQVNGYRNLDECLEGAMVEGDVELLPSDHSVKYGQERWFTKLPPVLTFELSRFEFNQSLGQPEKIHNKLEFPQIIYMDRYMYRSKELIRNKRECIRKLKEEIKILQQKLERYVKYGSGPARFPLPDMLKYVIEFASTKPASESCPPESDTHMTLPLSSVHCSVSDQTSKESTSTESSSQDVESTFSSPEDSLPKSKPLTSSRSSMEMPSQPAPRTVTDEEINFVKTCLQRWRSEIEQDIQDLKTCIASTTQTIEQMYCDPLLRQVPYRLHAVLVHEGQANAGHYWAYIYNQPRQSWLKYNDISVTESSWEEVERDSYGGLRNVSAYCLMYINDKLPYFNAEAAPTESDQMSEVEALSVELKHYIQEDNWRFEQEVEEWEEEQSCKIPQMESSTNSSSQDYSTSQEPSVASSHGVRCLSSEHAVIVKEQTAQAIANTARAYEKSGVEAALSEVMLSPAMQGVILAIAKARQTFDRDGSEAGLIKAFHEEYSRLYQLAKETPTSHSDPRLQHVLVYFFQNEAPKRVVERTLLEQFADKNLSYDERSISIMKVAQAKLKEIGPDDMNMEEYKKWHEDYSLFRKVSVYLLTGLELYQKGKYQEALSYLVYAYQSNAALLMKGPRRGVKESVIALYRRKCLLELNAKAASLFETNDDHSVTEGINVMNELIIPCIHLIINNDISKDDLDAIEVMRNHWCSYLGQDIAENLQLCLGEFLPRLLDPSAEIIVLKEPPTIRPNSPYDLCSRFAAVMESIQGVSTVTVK
In words: Ubiquitin-Rhodamine 110 Assay for USP28 Activity, Example A-1(a). Type of test: biochemical. Conditions: Ub-Rh110 assay, Example A-1(a); read-out: USP28 A-1(a) IC50 range. The gist of the method:
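IC50 from 4-parameter logistic fit of percent inhibition versus no-enzyme and DMSO controls; compounds 25 μM to 1.3 nM, 3-fold. Ub-Rh110 cleavage (25 nM, below Km) by […] mammalian-expressed USP28-FL-His ran 45 min at room temperature, stopped with 10 mM citric acid, read ex 485/em 535.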

Each structure is given as a SMILES string.

The IC50 is the point on the concentration scale where inhibition reaches its midpoint. As to `Cc1ccc2c(N)c(C(=O)N[C@H]3COc4cc(N5CCNCC5)ccc4C3)sc2n1` (single isomer, unassigned) [Example 1-1], the IC50 lay in the range of 1 to 50 nM. `Cc1ccc2c(N)c(C(=O)N[C@@H]3COc4cc(N5CCNCC5)ccc4C3)sc2n1` (single isomer, unassigned) [Example 1-2]: the half-inhibitory concentration (IC50) was 200 to 2000 nM. The value for `Cc1ccc2c(N)c(C(=O)N[C@H]3COc4cc(N5CC6CCC(C5)N6)ccc4C3)sc2n1` (single isomer, unassigned) [Example 1-3] was 1 to 50 nM; that for `Cc1ccc2c(N)c(C(=O)N[C@@H]3COc4cc(N5CC6CCC(C5)N6)ccc4C3)sc2n1` (single isomer, unassigned) [Example 1-4] was 200 to 2000 nM. The value for `Cc1ccc2c(N)c(C(=O)N[C@H]3COc4cc(N5CC6CCCC(C5)N6)ccc4C3)sc2n1` (single isomer, unassigned) [Example 1-5] was 1 to 50 nM. With `Cc1ccc2c(N)c(C(=O)N[C@@H]3COc4cc(N5CC6CCCC(C5)N6)ccc4C3)sc2n1` (single isomer, unassigned) [Example 1-6] the figure was 50 to 200 nM.

As for `Cc1ccc2c(N)c(C(=O)N[C@H]3COc4cc(N5CCN[C@H](C)[C@@H]5C)ccc4C3)sc2n1` (single isomer, unassigned) [Example 1-9], the IC50 was 1 to 50 nM. The value for `Cc1ccc2c(N)c(C(=O)N[C@@H]3COc4cc(N5CCN[C@H](C)[C@@H]5C)ccc4C3)sc2n1` (single isomer, unassigned) [Example 1-10] was 1 to 50 nM. With `Cc1ccc2c(N)c(C(=O)N[C@H]3COc4cc(N5CCN[C@H](C)[C@H]5C)ccc4C3)sc2n1` (single isomer, unassigned) [Example 1-11] the figure was 1 to 50 nM; with `Cc1ccc2c(N)c(C(=O)N[C@@H]3COc4cc(N5CCN[C@H](C)[C@H]5C)ccc4C3)sc2n1` (single isomer, unassigned) [Example 1-12], 1 to 50 nM. With `Cc1ccc2c(N)c(C(=O)N[C@H]3COc4cc(N5CCN[C@@H](C)[C@@H]5C)ccc4C3)sc2n1` (single isomer, unassigned) [Example 1-13] the figure was 50 to 200 nM. Regarding `Cc1ccc2c(N)c(C(=O)N[C@@H]3COc4cc(N5CCN[C@@H](C)[C@@H]5C)ccc4C3)sc2n1` (single isomer, unassigned) [Example 1-14], the concentration for half-maximal inhibition (IC50) lay in the range of 50 to 200 nM.

In the case of `Cc1nc2sc(C(=O)N[C@H]3COc4cc(N5CCNCC5)ccc4C3)c(N)c2cc1F` (single isomer, unassigned) [Example 1-15], the half-inhibitory concentration (IC50) was 1 to 50 nM. With `Cc1nc2sc(C(=O)N[C@@H]3COc4cc(N5CCNCC5)ccc4C3)c(N)c2cc1F` (single isomer, unassigned) [Example 1-16] the figure was 200 to 2000 nM. Turning to `Nc1c(C(=O)N[C@H]2COc3cc(N4CC5CCC(C4)N5)ccc3C2)sc2ncc(F)cc12` (single isomer, unassigned) [Example 1-17], the IC50 is 50 to 200 nM. In the case of `Nc1c(C(=O)N[C@@H]2COc3cc(N4CC5CCC(C4)N5)ccc3C2)sc2ncc(F)cc12` (single isomer, unassigned) [Example 1-18], the IC50 is > 2000 nM. With `Cc1cnc2c(N)c(C(=O)N[C@H]3COc4cc(N5CCNCC5)ccc4C3)sc2n1` (single isomer, unassigned) [Example 1-21] the figure was 1 to 50 nM; with `Cc1cnc2c(N)c(C(=O)N[C@@H]3COc4cc(N5CCNCC5)ccc4C3)sc2n1` (single isomer, unassigned) [Example 1-22], 200 to 2000 nM. For `CCn1ccc2cc(C(=O)N[C@@H]3COc4cc(N5CC6CCC(C5)N6)ccc4C3)cnc21` (single isomer, unassigned) [Example 1-27], the IC50 fell in the range of 200 to 2000 nM. In the case of `CCn1ccc2cc(C(=O)N[C@H]3COc4cc(N5CC6CCC(C5)N6)ccc4C3)cnc21` (single isomer, unassigned) [Example 1-28], the IC50 was in the range of 1 to 50 nM.

For `Cc1ccc2c(N)c(C(=O)N[C@@H]3COc4cc(N5CC6CCC(C5)N6)cc(F)c4C3)sc2n1` (single isomer, unassigned) [Example 1-30], the IC50 fell in the range of 200 to 2000 nM. The value for `Cc1ccc2c(N)c(C(=O)N[C@H]3COc4cc(N5CCNCC5)c(OC(F)(F)F)cc4C3)sc2n1` (single isomer, unassigned) [Example 1-31] was 200 to 2000 nM; that for `Cc1ccc2c(N)c(C(=O)N[C@@H]3COc4cc(N5CCNCC5)c(OC(F)(F)F)cc4C3)sc2n1` (single isomer, unassigned) [Example 1-32] was 50 to 200 nM. The value for `Cc1nc2sc(C(=O)N[C@H]3COc4cc(N5CCNCC5)cc(F)c4C3)c(N)c2s1` (single isomer, unassigned) [Example 1-37] was > 2000 nM; that for `Cc1nc2sc(C(=O)N[C@@H]3COc4cc(N5CCNCC5)cc(F)c4C3)c(N)c2s1` (single isomer, unassigned) [Example 1-38] was 1 to 50 nM.

For `Cc1nc2sc(C(=O)N[C@H]3COc4cc(N5CC6CCC(C5)N6)cc(F)c4C3)c(N)c2s1` (single isomer, unassigned) [Example 1-39], the half-inhibitory concentration (IC50) was 1 to 50 nM. With `Cc1nc2sc(C(=O)N[C@@H]3COc4cc(N5CC6CCC(C5)N6)cc(F)c4C3)c(N)c2s1` (single isomer, unassigned) [Example 1-40] the figure was 200 to 2000 nM; with `Cc1ccc2c(N)c(C(=O)N[C@@H]3COc4cc(N5CC6CC(C5)N6)cc(F)c4C3)sc2n1` (single isomer, unassigned) [Example 1-41], 1 to 50 nM. With `Cc1ccc2c(N)c(C(=O)N[C@H]3COc4cc(N5CC6CC(C5)N6)cc(F)c4C3)sc2n1` (single isomer, unassigned) [Example 1-42] the figure was 200 to 2000 nM; with `Cc1cnc2c(N)c(C(=O)N[C@H]3CCc4cc(N5CCNCC5)c(C)cc4C3)sc2n1` (single isomer, unassigned) [Example 2-34], 50 to 200 nM; with `Cc1cnc2c(N)c(C(=O)N[C@@H]3CCc4cc(N5CCNCC5)c(C)cc4C3)sc2n1` (single isomer, unassigned) [Example 2-35], > 2000 nM. The value for `Cc1cnc2c(N)c(C(=O)N[C@H]3CCc4c(ccc(N5CCNCC5)c4C)C3)sc2n1` (single isomer, unassigned) [Example 2-36] was 200 to 2000 nM; that for `Cc1cnc2c(N)c(C(=O)N[C@@H]3CCc4c(ccc(N5CCNCC5)c4C)C3)sc2n1` (single isomer, unassigned) [Example 2-37] was 1 to 50 nM; that for `CO[C@H]1CN(c2ccc3c(c2)OC[C@H](NC(=O)c2sc4nc(C)ccc4c2N)C3)C[C@@H]1N` (single isomer, unassigned) [Example 3-1] was 1 to 50 nM. As for `CO[C@@H]1CN(c2ccc3c(c2)OC[C@H](NC(=O)c2sc4nc(C)ccc4c2N)C3)C[C@H]1N` (single isomer, unassigned) [Example 3-2], the half-inhibitory concentration (IC50) lay in the range of 1 to 50 nM.

With `Cc1ccc2c(N)c(C(=O)N[C@H]3COc4cc(N5CCC[C@@](N)(C(F)(F)F)C5)ccc4C3)sc2n1` (single isomer, unassigned) [Example 3-3], the IC50 fell in the range of 1 to 50 nM. With `Cc1ccc2c(N)c(C(=O)N[C@H]3COc4cc(N5CCC[C@](N)(C(F)(F)F)C5)ccc4C3)sc2n1` (single isomer, unassigned) [Example 3-4] the figure was 1 to 50 nM.
